According to PubChem BioAssay (NCI):
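The concentration for 50% growth inhibition is given as GI50. Definition used: TGI = concentration required for complete inhibition of growth.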

Experiments:
Assay in all cases: NCI tumour cell line growth inhibition, 384-well format; in the data active means GI50 below about 0.43 µM; inactive means the rest
M14 melanoma = tested on: M14 melanoma
NCI-H460 NSCLC = tested on: NCI-H460 NSCLC
KM12 colon = tested on: KM12 colon
UACC-62 melanoma = tested on: UACC-62 melanoma
UO-31 renal = tested on: UO-31 renal
HOP-92 NSCLC = tested on: HOP-92 NSCLC
SN12C renal = tested on: SN12C renal
NCI-H226 lung = tested on: NCI-H226 lung
SK-MEL-5 melanoma = tested on: SK-MEL-5 melanoma
MDA-MB-468 breast = tested on: MDA-MB-468 breast
UACC-257 melanoma = tested on: UACC-257 melanoma
PC-3 prostate = tested on: PC-3 prostate
MOLT-4 leukemia = tested on: MOLT-4 leukemia
LOX IMVI melanoma = tested on: LOX IMVI melanoma
K-562 leukemia = tested on: K-562 leukemia
DU-145 prostate = tested on: DU-145 prostate
HS 578T breast = tested on: HS 578T breast
OVCAR-4 ovarian = tested on: OVCAR-4 ovarian
COLO 205 colon = tested on: COLO 205 colon
MALME-3M melanoma = tested on: MALME-3M melanoma
OVCAR-5 ovarian = tested on: OVCAR-5 ovarian
CCRF-CEM leukemia = tested on: CCRF-CEM leukemia
NCI-H322M lung = tested on: NCI-H322M lung
SNB-19 CNS = tested on: SNB-19 CNS
TK-10 renal = tested on: TK-10 renal
A549 NSCLC = tested on: A549 NSCLC
OVCAR-3 ovarian = tested on: OVCAR-3 ovarian
SK-OV-3 ovarian = tested on: SK-OV-3 ovarian
IGROV1 ovarian = tested on: IGROV1 ovarian
OVCAR-8 ovarian = tested on: OVCAR-8 ovarian

N#Cc1ccnc(N2C(=O)CC[C@H]2C(=O)N(c2cncc(F)c2)[C@H](C(=O)NC2CC(F)(F)C2)c2ccccc2Cl)c1
inactive: GI50 (M14 melanoma) > 100 µM | GI50 (NCI-H460 NSCLC) 89.7 µM | GI50 (KM12 colon) > 100 µM | GI50 (UACC-62 melanoma) > 100 µM | GI50 (UO-31 renal) > 100 µM | GI50 (HOP-92 NSCLC) 34.3 µM | GI50 (SN12C renal) > 100 µM | GI50 (NCI-H226 lung) > 84.9 µM | GI50 (SK-MEL-5 melanoma) > 100 µM | GI50 (MDA-MB-468 breast) > 100 µM | GI50 (UACC-257 melanoma) > 100 µM | GI50 (PC-3 prostate) > 100 µM | GI50 (MOLT-4 leukemia) 30.3 µM | GI50 (LOX IMVI melanoma) > 100 µM | GI50 (K-562 leukemia) 99.2 µM | GI50 (DU-145 prostate) > 100 µM | GI50 (HS 578T breast) > 87.8 µM | GI50 (OVCAR-4 ovarian) > 86.7 µM | GI50 (COLO 205 colon) > 100 µM | GI50 (MALME-3M melanoma) > 100 µM | GI50 (OVCAR-5 ovarian) > 100 µM | GI50 (CCRF-CEM leukemia) > 72.8 µM | GI50 (NCI-H322M lung) > 100 µM | GI50 (SNB-19 CNS) > 100 µM | GI50 (TK-10 renal) > 100 µM | GI50 (A549 NSCLC) > 90.8 µM | GI50 (OVCAR-3 ovarian) > 96.1 µM | GI50 (SK-OV-3 ovarian) > 100 µM | GI50 (IGROV1 ovarian) > 100 µM | GI50 (OVCAR-8 ovarian) > 100 µM
> 100 µM: TGI (M14 melanoma) | TGI (NCI-H460 NSCLC) | TGI (KM12 colon) | TGI (UACC-62 melanoma) | TGI (UO-31 renal) | TGI (HOP-92 NSCLC) | TGI (SN12C renal) | TGI (NCI-H226 lung) | TGI (SK-MEL-5 melanoma) | TGI (MDA-MB-468 breast) | TGI (UACC-257 melanoma) | TGI (PC-3 prostate) | TGI (MOLT-4 leukemia) | TGI (LOX IMVI melanoma) | TGI (K-562 leukemia) | TGI (DU-145 prostate) | TGI (HS 578T breast) | TGI (OVCAR-4 ovarian) | TGI (COLO 205 colon) | TGI (MALME-3M melanoma) | TGI (OVCAR-5 ovarian) | TGI (CCRF-CEM leukemia) | TGI (NCI-H322M lung) | TGI (SNB-19 CNS) | TGI (TK-10 renal) | TGI (A549 NSCLC) | TGI (OVCAR-3 ovarian) | TGI (SK-OV-3 ovarian) | TGI (IGROV1 ovarian) | TGI (OVCAR-8 ovarian)
